Data on 1 compound can be found in patent US9910034B2, “Methods and compositions for phototransfer” (AmberGen, Inc., priority 2007, dated 2018).

The structures appear in SMILES notation.

The assay addresses T1, protein kinase Cα (PKCα) (Homo sapiens, UniProt P17252).
T1 construct: isolate and photo-release endogenous PKCα from the undiluted detergent fractionated HeLa cell extracts; endogenous in cells; host or cells: HeLa cells (ATCC)
The assay is described as follows: PMA mediated PKCα sub-cellular translocation measured by kinase activity after isolation with photocleavable antibodies. The settings on record: cultured HeLa cells stimulated with 200 nM PMA for 5 min; detergent fractionated; based on kinase activity of photocleavable antibody isolated protein; n=4. Format: cell-based. The protocol: FIG. 20. Phorbol ester (PMA) mediated protein kinase Cα (PKCα) sub-cellular translocation as measured by functional activity following isolation with photocleavable antibodies. Cultured HeLa cells were stimulated with 200 nM PMA for 5 min and detergent fractionated into the cytosol and membrane compartments prior to isolation and purification with the photocleavable antibodies.
Cultured HeLa cells (ATCC; Manassas, Va.) were stimulated for 5 min with 200 nM Phorbol-12-Myristate-13-Acetate (PMA; EMD Biosciences, Inc., San Diego, Calif.) and subsequently detergent fractionated into sub-cellular compartments according to reported procedures [Ramsby et al. (1994) Electrophoresis 15, 265-277; Ramsby & Makowski. (1999) Methods Mol Biol 112, 53-66; Chiang et al. (2000) J Biochem Biophys Methods 46, 53-68]. PMA is a potent activator of PKCα and is well known to cause translocation of the kinase from the cytosolic to the membrane sub-cellular compartments [Ross & Joyner. (1997) Endothelium 5, 321-332; Bazan & Rapoport. (1996) J Pharmacol Toxicol Methods 36, 87-95; Yazlovitskaya Melnykovych. (1995) Cancer Lett 88, 179-183]. […]

Turning to `CCCCCCCCCCCCCC(=O)O[C@@H]1[C@@H](C)[C@@]2(O)[C@@H](C=C(CO)C[C@]3(O)C(=O)C(C)=C[C@@H]23)[C@@H]2C(C)(C)[C@]12OC(C)=O` [PMA, Phorbol-12-Myristate-13-Acetate], the “relative sub-cellular distribution of PKCα, cytosol” value was 16±4% and the “relative sub-cellular distribution of PKCα, membrane” value was 84±3%.
